{"source": "patent US20190137505A1", "about": "(THE ARIZONA BOARD OF REGENTS ON BEHALF OF THE UNIVERSITY OF …, priority 2015, published 2019)", "target": "T1, plasminogen (Homo sapiens, UniProt P00747)", "T1 construct": "Glu-Pg, uPA, tPA, fibrinogen, and chromogenic substrate for Pn were purchased from Molecular Innovations (Novi, Mich.); purchased Molecular Innovations (Novi, Mich.)", "T1 sequence (P00747 20-810 limits assumed)": "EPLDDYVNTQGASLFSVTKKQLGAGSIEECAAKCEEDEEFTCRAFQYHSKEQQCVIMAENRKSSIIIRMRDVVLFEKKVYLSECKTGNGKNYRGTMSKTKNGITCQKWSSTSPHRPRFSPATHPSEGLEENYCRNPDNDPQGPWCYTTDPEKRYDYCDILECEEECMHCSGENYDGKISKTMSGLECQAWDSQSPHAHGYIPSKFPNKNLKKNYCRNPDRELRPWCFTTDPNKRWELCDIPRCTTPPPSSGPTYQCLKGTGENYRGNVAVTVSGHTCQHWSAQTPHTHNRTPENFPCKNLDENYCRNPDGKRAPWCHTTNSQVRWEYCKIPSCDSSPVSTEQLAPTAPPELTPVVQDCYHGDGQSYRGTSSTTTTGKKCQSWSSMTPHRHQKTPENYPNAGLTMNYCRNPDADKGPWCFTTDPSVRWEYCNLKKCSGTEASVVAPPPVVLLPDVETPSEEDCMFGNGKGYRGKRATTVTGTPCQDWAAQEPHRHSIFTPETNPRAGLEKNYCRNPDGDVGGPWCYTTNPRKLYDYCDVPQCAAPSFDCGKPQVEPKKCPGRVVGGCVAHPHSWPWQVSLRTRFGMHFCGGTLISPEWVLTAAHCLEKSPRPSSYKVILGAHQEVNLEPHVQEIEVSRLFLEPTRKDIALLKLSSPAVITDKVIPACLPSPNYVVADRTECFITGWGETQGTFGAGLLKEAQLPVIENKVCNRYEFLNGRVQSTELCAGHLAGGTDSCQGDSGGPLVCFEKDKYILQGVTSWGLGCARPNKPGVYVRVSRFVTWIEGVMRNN", "test": "LC-MS/MS identification of sites of MG adduction on plasminogen in vitro (Tables 1 and 12)", "settings": "500 μM MG, 24 hr", "protocol": "10 μg Pg was incubated with MG (50-500 μM) in tris-buffered saline (TBS) for 24 hours at 37° C. Following modification, sample volumes were increased to 150 μL and placed in 5 kDa spin filters to reduce volume and remove excess MG from solution.\nMG-modified (500 μM) and unmodified Pg control (same incubation conditions without MG) were added to 250 μL amount of rehydration buffer (6M urea, 2M thiourea, 2% CHAPS, 100 mM DTT, 0.5% 3-10 ampholytes) and 5 μL of 3-10 ampholytes (Bio-Rad). Sample rehydrated with a 13 cm 4-7 pH isoelectric focusing strip (GE Healthcare) overnight. Following rehydration, strips were placed in a Bio-Rad PROTEAN IEF Cell focusing instrument. Strips were first focused for 1 hour at 500 V, and then run at a maximum of 8,000V until the strips have reached a final total of 45,000 V/hrs at which point gels are held at 500V until removed. Focused strips were removed, reduced with DTT, cysteines carbamidomethylated with iodoacetamide, and run on a 4-20% gradient Criterion gel for 55 minutes at 200V. Gels were stained for stained according to manufacturer instructions with Imperial Blue Protein (ThermoScientific, Rockford, Ill.) and destained immediately with water. Gel bands were excised and trypsin digested.\nCoomassie stained gel-bands were excised and washed in ddH2O for 15 min. H2O was removed and bands were incubated in 50/50 acetonitrile (ACN):ddH2O for 15 min. ACN:ddH2O was removed and bands were incubated with ACN for 5 min. ACN was removed and gels were incubated with 100 mM ammonium bicarbonate (AMBIC). An equal volume of ACN was added to make 1:1 solution and was incubated for 15 min. The ACN/AMBIC solution was removed and remaining gel bands were dried by speed-vacuum. 10 mM dithiothreitol (DTT) was added to each band and incubated at 56° C. for 45 min. DTT was removed and sample brought to room temperature (RT). Iodoacetamide (55 mM) was added to each sample and incubated at RT for 30 min in dark. Iodoacetamide was removed and 100 mM AMBIC was added and bands were incubated for 5 min. An equal volume of ACN was added to make a 1:1 solution and incubated for 15 min. The ACN/AMBIC solution was removed and bands were dried by speed-vacuum. Bands were digested with trypsin (400 ng/band) in 50 mM AMBIC and incubated on ice for 45 min. Tryptic solution was removed and 50 mM AMBIC was added to each band and incubated overnight at 37° C. to complete digestion. Digests were acidified using 10% trifluoroacetic acid (TFA). Supernatant was saved. Band was covered with TFA:ACN (0.1%:60%) and sonicated at 20° C. water bath for 30 min. Supernatant was combined with previous fraction. Sampled were speed vacuumed to a final volume of 10 μL prior to LC-MS/MS analysis on an LTQ Orbitrap Velos mass spectrometer as described below.\nLC-MS/MS analysis of in-gel trypsin digested-proteins (Shevchenko et al., 1996) was carried out using a LTQ Orbitrap Velos mass spectrometer (Thermo Fisher Scientific, San Jose, Calif.) equipped with an Advion nanomate ESI source (Advion, Ithaca, N.Y.), following ZipTip (Millipore, Billerica, Mass.) C18 sample clean-up according to the manufacturer's instructions. Peptides were eluted from a C18 precolumn (100-μm id×2 cm, Thermo Fisher Scientific) onto an analytical column (75-μm ID×10 cm, C18, Thermo Fisher Scientific) using a 5-20% gradient of solvent B (acetonitrile, 0.1% formic acid) over 65 minutes, followed by a 20-35% gradient of solvent B over 25 minutes, all at a flow rate of 400 nl/min. Solvent A consisted of water and 0.1% formic acid. Data dependent scanning was performed by the Xcalibur v 2.1.0 software (Andon et al., 2002) using a survey mass scan at 60,000 resolution in the Orbitrap analyzer scanning m/z 350-1600, followed by collision-induced dissociation (CID) tandem mass spectrometry (MS/MS) of the fourteen most intense ions in the linear ion trap analyzer. […]", "data": [{"smiles": "CC(=O)C=O", "note": "[MG, Methylglyoxal]", "values": [{"measurement": "Spectra Observed", "setting": "site 312, MG-DH, RAPWC(+57)HTTNSQVR", "result": 10}, {"measurement": "Spectra Observed", "setting": "site 312, MG-HI, RAPWC(+57)HTTNSQVR", "result": 8}, {"measurement": "Spectra Observed", "setting": "site 324, MG-DH, RAPWC(+57)HTTNSQVRWEYC(+57)K", "result": 4}, {"measurement": "Spectra Observed", "setting": "site 324, MG-HI, APWC(+57)HTTN SQVRWEYC(+57)K", "result": 3}, {"measurement": "Spectra Observed", "setting": "site 324, MG-HI, RAPWC(+57)HTTNSQVRWEYC(+57)K", "result": 7}, {"measurement": "Spectra Observed", "setting": "site 389, MG-DH, C(+57)QSWSSMTPHRHQK", "result": 2}, {"measurement": "Spectra Observed", "setting": "site 389, MG-DH, KC(+57)QSWSSMTPHRHQK", "result": 1}, {"measurement": "Spectra Observed", "setting": "site 389, MG-HI, C(+57)QSWSSMTPHRHQK", "result": 4}, {"measurement": "Spectra Observed", "setting": "site 389, MG-HI, KC(+57)QSWSSMTPHRHQK", "result": 1}, {"measurement": "Spectra Observed", "setting": "site 474, MG-DH, GKRATTVTGTPC(+57)QDWAAQEPHR", "result": 1}, {"measurement": "Spectra Observed", "setting": "site 474, MG-DH, RATTVTGTPC(+57)QDWAAQEPHR", "result": 3}, {"measurement": "Spectra Observed", "setting": "site 474, MG-HI, GKRATTVTGTPC(+57)QDWAAQEPHR", "result": 4}, {"measurement": "Spectra Observed", "setting": "site 474, MG-HI, RATTVTGTPC(+57)QDWAAQEPHR", "result": 3}, {"measurement": "Spectra Observed", "setting": "site 493, MG-DH, ATTVTGTPC(+57)QDWAAQEPHRHSIFTPETNPR", "result": 4}, {"measurement": "Spectra Observed", "setting": "site 493, MG-DH, RATTVTGPC(+57)QDWAAQEPHRHSIFTPETNPR", "result": 3}, {"measurement": "Spectra Observed", "setting": "site 493, MG-HI, ATTVTGTPC(+57)QDWAAQEPHRHSIFTPETNPR", "result": 6}, {"measurement": "Spectra Observed", "setting": "site 493, MG-HI, RATTVTGPC(+57)QDWAAQEPHRHSIFTPETNPR", "result": 4}, {"measurement": "Spectra Observed", "setting": "site 504, MG-DH, HSIFTPETNPRAGLEK", "result": 9}, {"measurement": "Spectra Observed", "setting": "site 504, MG-HI, HSIFTPETNPRAGLEK", "result": 16}, {"measurement": "Spectra Observed", "setting": "site 530, MG-DH, NPDGDVGGPWC(+57)YTTNPRK", "result": 9}, {"measurement": "Spectra Observed", "setting": "site 530, MG-HI, NPDGDVGGPWC(+57)YTTNPRK", "result": 12}, {"measurement": "Spectra Observed", "setting": "site 530, MG-HI, NYC(+57)RNPDGDVGGPWC(+57)YTTNPRK", "result": 3}, {"measurement": "Spectra Observed", "setting": "site 561, MG-DH, C(+57)PGRVVGGC(+57)VAHPHSWPWQVSLR", "result": 5}, {"measurement": "Spectra Observed", "setting": "site 561, MG-DH, CPGRVVGGCVAHPHSWPWQVSLR", "result": 1}, {"measurement": "Spectra Observed", "setting": "site 561, MG-DH, KC(+57)PGRVVGGC(+57)VAHPHSWPWQVSLR", "result": 10}, {"measurement": "Spectra Observed", "setting": "site 561, MG-DH, KCPGRVVGGCVAHPHSWPWQVSLR", "result": 1}, {"measurement": "Spectra Observed", "setting": "site 561, MG-HI, C(+57)PGRVVGGC(+57)VAHPHSWPWQVSLR", "result": 5}, {"measurement": "Spectra Observed", "setting": "site 561, MG-HI, KC(+57)PGRVVGGC(+57)VAHPHSWPWQVSLR", "result": 12}, {"measurement": "Spectra Observed", "setting": "site 582, MG-DH, TRFGMHFC(+57)GGTLISPEWVLTAAHC(+57)LEK", "result": 1}, {"measurement": "Spectra Observed", "setting": "site 582, MG-HI, TRFGM(+16)HFC(+57)GGTLISPEWVLTAAHC(+57)LEK", "result": 1}, {"measurement": "Spectra Observed", "setting": "site 582, MG-HI, TRFGMHFC(+57)GGTLISPEWVLTAAHC(+57)LEK", "result": 1}, {"measurement": "Spectra Observed", "setting": "site 644, MG-HI, LFLEPTRK", "result": 2}, {"measurement": "Spectra Observed", "setting": "site 712, MG-DH, VC(+57)NRYEFLNGR", "result": 5}, {"measurement": "Spectra Observed", "setting": "site 712, MG-HI, VC(+57)NRYEFLNGR", "result": 4}, {"measurement": "Spectra Observed", "setting": "site 767, MG-DH, DKYILQGVTSWGLGC(+57)ARPNKPGVYVR", "result": 8}, {"measurement": "Spectra Observed", "setting": "site 767, MG-DH, YILQGVTSWGLGC(+57)ARPNKPGVYVR", "result": 6}, {"measurement": "Spectra Observed", "setting": "site 767, MG-HI, DKYILQGVTSWGLGC(+57)ARPNKPGVYVR", "result": 11}, {"measurement": "Spectra Observed", "setting": "site 767, MG-HI, YILQGVTSWGLGC(+57)ARPNKPGVYVR", "result": 6}, {"measurement": "Spectra Observed", "setting": "site 779, MG-DH, VSRFVTWIEGVM(+16)R", "result": 5}, {"measurement": "Spectra Observed", "setting": "site 779, MG-DH, VSRFVTWIEGVMR", "result": 2}, {"measurement": "Spectra Observed", "setting": "site 779, MG-HI, VSRFVTWIEGVM(+16)R", "result": 9}, {"measurement": "Spectra Observed", "setting": "site 779, MG-HI, VSRFVTWIEGVMR", "result": 4}, {"measurement": "Spectra Observed", "setting": "site 789, MG-DH, FVTWIEGVM(+16)RNN", "result": 6}, {"measurement": "Spectra Observed", "setting": "site 789, MG-DH, FVTWIEGVMRNN", "result": 13}, {"measurement": "Spectra Observed", "setting": "site 789, MG-HI, FVTWIEGVM(+16)RNN", "result": 10}, {"measurement": "Spectra Observed", "setting": "site 789, MG-HI, FVTWIEGVMRNN", "result": 14}, {"measurement": "Spectra Observed", "setting": "sites 115/117, MG-DH, MG-HI, WSSTSPHRPRFSPATHPSEGLEENYC(+57)R", "result": 2}, {"measurement": "Spectra Observed", "setting": "sites 115/117, MG-DH, WSSTSPHRPRFSPATHPSEGLEENYC(+57)R", "result": 1}, {"measurement": "Spectra Observed", "setting": "sites 115/117, MG-HI, WSSTSPHRPRFSPATHPSEGLEENYC(+57)R", "result": 3}, {"measurement": "Spectra Observed", "setting": "sites 220/223, MG-DH, NPDRELRPWC(+57)FTTDPNKR", "result": 3}, {"measurement": "Spectra Observed", "setting": "sites 220/223, MG-HI, MG-DH, NPDRELRPWC(+57)FTTDPNKR", "result": 9}, {"measurement": "Spectra Observed", "setting": "sites 220/223, MG-HI, NPDRELRPWC(+57)FTTDPNKR", "result": 8}, {"measurement": "Spectra Observed", "setting": "sites 312/324, MG-DH, MG-HI, RAPWC(+57)HTTNSQVRWEYC(+57)K", "result": 7}, {"measurement": "Spectra Observed", "setting": "sites 312/324, MG-DH, RAPWC(+57)HTTNSQVRWEYC(+57)K", "result": 3}, {"measurement": "Spectra Observed", "setting": "sites 312/324, MG-HI, RAPWC(+57)HTTNSQVRWEYC(+57)K", "result": 2}, {"measurement": "Spectra Observed", "setting": "sites 474/493, MG-DH, MG-HI, RATTVTGTPCQDWAAQEPHRHSIFTPETNPR", "result": 1}, {"measurement": "Spectra Observed", "setting": "sites 474/493, MG-HI, RATTVTGTPC(+57)QDWAAQEPHRHSIFTPETNPR", "result": 1}, {"measurement": "Spectra Observed", "setting": "sites 489/504, MG-HI, MG-DH, ATTVTGTPC(+57)QDWAAQEPHRHSIFTPETNPRAGLEK", "result": 1}, {"measurement": "Spectra Observed", "setting": "sites 779/789, MG-DH, VSRFVTWIEGVM(+16)RNN", "result": 1}, {"measurement": "Spectra Observed", "setting": "sites 779/789, MG-HI, MG-DH, VSRFVTWIEGVM(+16)RNN", "result": 3}, {"measurement": "Spectra Observed", "setting": "sites 779/789, MG-HI, VSRFVTWIEGVM(+16)RNN", "result": 3}]}]}
